# Reference: patent publication US8227511B2, “Substituted chromanol derivatives and their use” (Bayer Intellectual Property GmbH, priority 2006, dated 2012)
# Columns and labels:
# CETP [1] = target: T1, CETP (Homo sapiens, UniProt P11597); assay: CETP fluorescence test with enriched CETP; format: biochemical; details: enriched CETP fraction from human plasma; transfer of fluorescent cholesterol ester between liposomes; 37° C. for 4 h
# T1 construct: CETP is obtained in partially purified form from human plasma by differential centrifugation and column chromatography and used for the test; from tissue; host or cells: human plasma
# T1 sequence (P11597 18-493): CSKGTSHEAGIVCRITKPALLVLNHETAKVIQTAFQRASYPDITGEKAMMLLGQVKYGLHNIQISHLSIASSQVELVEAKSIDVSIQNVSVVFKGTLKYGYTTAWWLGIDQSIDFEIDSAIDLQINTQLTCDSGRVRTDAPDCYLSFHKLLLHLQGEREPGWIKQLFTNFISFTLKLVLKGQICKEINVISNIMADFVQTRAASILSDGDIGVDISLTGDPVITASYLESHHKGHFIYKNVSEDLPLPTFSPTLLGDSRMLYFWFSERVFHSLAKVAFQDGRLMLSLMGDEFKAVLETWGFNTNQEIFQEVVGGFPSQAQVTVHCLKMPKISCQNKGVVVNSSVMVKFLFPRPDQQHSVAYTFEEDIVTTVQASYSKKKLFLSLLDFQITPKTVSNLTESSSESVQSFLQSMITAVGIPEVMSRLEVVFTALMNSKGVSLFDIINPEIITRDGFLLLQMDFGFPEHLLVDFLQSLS
# Procedure: (§1) CETP is obtained in partially purified form from human plasma by differential centrifugation and column chromatography and used for the test. To this end, human plasma is adjusted to a density of 1.21 g per ml using NaBr and centrifuged at 4° C. at 50 000 rpm for 18 h. The bottom fraction (d>1.21 g/ml) is applied to a Phenyl-Sepharose 26/10 HP fast flow-column (Pharmacia), washed with PBS buffer and then eluted with distilled water. 10 parts of PBS buffer and 1% (w/v) BSA are added to the eluate. The CETP-active fractions are pooled.
# Measurement of the CETP-catalyzed transfer of a fluorescent cholesterol ester between liposomes [modified according to the procedure of Bisgaier et al., J. Lipid Res. 34, 1625 (1993)]:
# For the production of the donor liposomes, 1 mg of cholesteryl 4,4-difluoro-5,7-dimethyl-4-bora-3a,4a-diaza-s-indacene-3-dodecanoate (cholesteryl BODIPY® FL C12, Molecular Probes) is dissolved in 2 ml of chloroform with 5.35 mg of triolein and 6.67 mg of phosphatidylcholine. The solvent is removed at medium temperature in a SpeedVac and the residue is dried under high vacuum for 1 h. The residue is then dissolved in 600 μl of dioxane with gentle warming in an ultrasonic bath and this solution is added very slowly with ultrasonication to 63 ml of 50 mM Tris/HCl, 150 mM NaCl, 2 mM EDTA buffer pH 7.3 at room temperature. The suspension is then ultrasonicated under an N2 atmosphere for 30 minutes in the Branson ultrasonic bath at about 50 watts, the temperature being kept at about 20° C.
# The acceptor liposomes are obtained analogously from 86 mg of cholesteryl oleate, 20 mg of triolein and 100 mg of phosphatidylcholine dissolved in 1.2 ml of dioxane and 114 ml of the above buffer by ultrasonication at 50 watts (20° C.) for 30 minutes.
# For testing, a test mix consisting of 1 part of above buffer, 1 part of donor liposomes and 2 parts of acceptor liposomes is used.
# 50 μl of test mix are treated with 48 μl of enriched CETP fraction (1-3 μg), obtained from human plasma by means of hydrophobic chromatography, and 2 μl of a solution of the substance to be investigated in DMSO and incubated at 37° C. for 4 h.
# The change in the fluorescence at 485/535 nm is a measure of the CE transfer; the inhibition of the transfer in comparison to the control batch without substance is determined.
# CETP [2] = target: T1, CETP; assay: CETP-SPA test; format: biochemical; details: transfer of 3H-cholesterol ester from human HDL to biotinylated LDL; 37° C. for 18 h
# Procedure: as §1
# For testing of the CETP activity, the transfer of ^3H-cholesterol ester from human HD lipoproteins to biotinylated LD lipoproteins is measured. The reaction is ended by addition of streptavidin-SPA® beads (Amersham) and the transferred radioactivity is determined directly in a liquid scintillation counter.
# In the test batch, 10 μl of HDL-3H-cholesterol ester (about 50 000 cpm) are incubated at 37° C. for 18 h with 10 μl of biotin-LDL (Amersham) in 50 mM Hepes/0.15 M NaCl/0.1% bovine serum albumin (RSA)/0.05% NaN3 pH 7.4 containing 10 μl of CETP (1 mg/ml) and 3 μl of a solution of the substance to be tested (dissolved in 10% DMSO/1% RSA). 200 μl of the SPA-streptavidin bead solution (TRKQ 7005) are then added, incubated further with shaking for 1 h and then measured in a scintillation counter. Corresponding incubations with 10 μl of buffer, 10 μl of CETP at 4° C. and 10 μl of CETP at 37° C. serve as controls.
# The activity transferred in the control batches with CETP at 37° C. is rated as 100% transfer. The substance concentration at which this transfer is reduced to half is specified as the IC50 value.
IC50 (CETP [1]),IC50 (CETP [2]),SMILES
50 nM,,"CC(C)c1cc2c(c(-c3ccc(F)cc3)c1C(F)c1ccc(OC(F)(F)F)cc1)[C@@H](O)CC1(CCC1)O2 (mixture of isomers) [Example 40, (4S)-5-(4-Fluorophenyl)-6-{fluoro[4-(trifluoromethoxy)phenyl]methyl}-7-isopropyl-3,4-dihydrospiro[chromen-2,1′-cyclobutan]-4-ol]"
340 nM,,"CC1(C)C[C@H](O)c2c(cc(C3CCCC3)c([C@@H](O)c3ccc(C(F)(F)F)cc3)c2-c2ccc(F)cc2)O1 [Example 1, (4S)-7-Cyclopentyl-5-(4-fluorophenyl)-6-{(S)-hydroxy[4-(trifluoromethyl)phenyl]methyl}-2,2-dimethylchroman-4-ol]"
90 nM,62 nM,"CC(C)c1cc2c(c(-c3ccc(F)cc3)c1C(=O)c1ccc(C(F)(F)F)cc1)[C@@H](O)CC(C)(C)O2 [Example 4, [(4S)-5-(4-Fluorophenyl)-4-hydroxy-7-isopropyl-2,2-dimethyl-3,4-dihydro-2H-chromen-6-yl][4-(trifluoromethyl)phenyl]methanone]"
35 nM,29 nM,"CC(C)c1cc2c(c(-c3ccc(F)cc3)c1[C@@H](O)c1ccc(C(F)(F)F)cc1)[C@@H](O)CC(C)(C)O2 [Example 5, (4S)-5-(4-Fluorophenyl)-6-{(S)-hydroxy[4-(trifluoromethyl)phenyl]methyl}-7-isopropyl-2,2-di-methylchroman-4-ol]"
373 nM,,"CC(C)c1cc2c(c(-c3ccc(F)cc3)c1[C@H](F)c1ccc(C(F)(F)F)cc1)[C@@H](O)CC(C)(C)O2 [Example 8, (4S)-5-(4-fluorophenyl)-6-{(R)-fluoro[4-(trifluoromethyl)phenyl]methyl}-7-isopropyl-2,2-dimethylchroman-4-ol]"
90 nM,33 nM,"CC(C)c1cc2c(c(-c3ccc(F)cc3)c1Cc1ccc(C(F)(F)F)cc1)[C@@H](O)CC(C)(C)O2 [Example 9, (4S)-5-(4-Fluorophenyl)-7-isopropyl-2,2-dimethyl-6-[4-(trifluoromethyl)benzyl]chroman-4-ol]"
93 nM,,"CC(C)c1cc2c(c(-c3ccc(F)cc3)c1C(=O)c1ccc(OC(F)(F)F)cc1)[C@@H](O)CC(C)(C)O2 [Example 10, [(4S)-5-(4-Fluorophenyl)-4-hydroxy-7-isopropyl-2,2-dimethyl-3,4-dihydro-2H-chromen-6-yl][4-(trifluoromethoxy)phenyl]methanone]"
63 nM,51 nM,"CC(C)c1cc2c(c(-c3ccc(F)cc3)c1[C@@H](O)c1ccc(OC(F)(F)F)cc1)[C@@H](O)CC(C)(C)O2 [Example 11, (4S)-5-(4-Fluorophenyl)-6-{(S)-hydroxy[4-(trifluoromethoxy)phenyl]methyl}-7-isopropyl-2,2-di-methylchroman-4-ol]"
176 nM,,"CC(C)c1cc2c(c(-c3ccc(F)cc3)c1C(=O)c1ccc(C(C)(C)C)cc1)[C@@H](O)CC(C)(C)O2 [Example 14, (4-tert-Butylphenyl)[(4S)-5-(4-fluorophenyl)-4-hydroxy-7-isopropyl-2,2-dimethyl-3,4-dihydro-2H-chromen-6-yl]methanone]"
38 nM,,"CC(C)c1cc2c(c(-c3ccc(F)cc3)c1[C@@H](O)c1ccc(C(C)(C)C)cc1)[C@@H](O)CC(C)(C)O2 [Example 15, (4S)-6-[(S)-(4-tert-Butylphenyl)(hydroxy)methyl]-5-(4-fluorophenyl)-7-isopropyl-2,2-dimethyl-chroman-4-ol]"
70 nM,,"CC(C)c1cc2c(c(-c3ccc(F)cc3)c1Cc1ccc(C(C)(C)C)cc1)[C@@H](O)CC(C)(C)O2 [Example 17, (4S)-6-(4-tert-Butylbenzyl)-5-(4-fluorophenyl)-7-isopropyl-2,2-dimethylchroman-4-ol]"
792 nM,,"CC(C)c1cc2c(c(-c3ccccc3)c1C(=O)c1ccc(OC(F)(F)F)cc1)[C@@H](O)CC(C)(C)O2 [Example 18, [(4S)-4-Hydroxy-7-isopropyl-2,2-dimethyl-5-phenyl-3,4-dihydro-2H-chromen-6-yl][4-(trifluoromethoxy)phenyl]methanone]"
200 nM,300 nM,"CC(C)c1cc2c(c(C3=CCCCC3)c1C(=O)c1ccc(C(F)(F)F)cc1)[C@@H](O)CC(C)(C)O2 [Example 19, (5-Cyclohex-1-en-1-yl-4-hydroxy-7-isopropyl-2,2-dimethyl-3,4-dihydro-2H-chromen-6-yl)[4-(tri-fluoromethyl)phenyl]methanone]"
49 nM,,"CC(C)c1cc2c(c(C3=CCCCC3)c1[C@@H](O)c1ccc(C(F)(F)F)cc1)[C@@H](O)CC(C)(C)O2 [Example 20, (4S)-5-Cyclohex-1-en-1-yl-6-{(S)-hydroxy[4-(trifluoromethyl)phenyl]methyl}-7-isopropyl-2,2-di-methylchroman-4-ol]"
51 nM,57 nM,"CC(C)c1cc2c(c(C3=CCCC3)c1[C@@H](O)c1ccc(C(F)(F)F)cc1)[C@@H](O)CC(C)(C)O2 [Example 22, (4S)-5-Cyclopent-1-en-1-yl-6-{(S)-hydroxy[4-(trifluoromethyl)phenyl]methyl}-7-isopropyl-2,2-di-methylchroman-4-ol]"
30 nM,16 nM,"CC(C)c1cc2c(c(C3CCCC3)c1[C@@H](O)c1ccc(C(F)(F)F)cc1)[C@@H](O)CC(C)(C)O2 [Example 24, (4S)-5-Cyclopent-1-yl-6-{(S)-hydroxy[4-(trifluoromethyl)phenyl]methyl}-7-isopropyl-2,2-dimethylchroman-4-ol]"
48 nM,,"CC(C)c1cc2c(c(C3CCCC3)c1Cc1ccc(C(F)(F)F)cc1)[C@@H](O)CC(C)(C)O2 [Example 26, (4S)-5-Cyclopentyl-7-isopropyl-2,2-dimethyl-6-[4-(trifluoromethyl)benzyl]chroman-4-ol]"
35 nM,18 nM,"CC(C)c1cc2c(c(-c3ccc(F)cc3)c1C(=O)c1ccc(C(F)(F)F)cc1)[C@@H](O)CC1(CCC1)O2 [Example 27, [(4S)-5-(4-Fluorophenyl)-4-hydroxy-7-isopropyl-3,4-dihydrospiro[chromen-2,1′-cyclobutan]-6-yl]-[4-(trifluoromethyl)phenyl]methanone]"
,400 nM,CC(C)(C)c1ccc([C@@H](O)c2c(C3CCCC3)cc3c(c2-c2ccc(F)cc2)[C@@H](O)CC2(CCC2)O3)cc1 [Example 49]
39 nM,,O[C@H]1CC2(CCC2)Oc2cc(C3CCCC3)c(C(F)c3ccc(OC(F)(F)F)cc3)c(-c3ccc(F)cc3)c21 (some centres unmarked) [Example 54]
263 nM,,CC(C)c1cc2c(c(-c3ccc(F)cc3)c1[C@H](O)c1ccc(C(F)(F)F)cc1)[C@@H](O)CC1(CC1)O2 [Example 56]
